Measurements from patent publication EP0603240B1, “SAFENING HERBICIDAL PYRAZOLYLSULFONYLUREAS” (priority 1991, dated 1993).

Assays:
[1] = test system: Giant foxtail (Setaria fabergi); assay: Example 24, Procedure II: Herbicide No. 1 + co-herbicides Nos. 4, 6, 7, 12 with Antidote Nos. 15 and 17-21; format: in vivo
Summary of the method: (§1)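 Greenhouse pots, herbicide No. 1 plus co-herbicides and antidote in acetone incorporated into silt loam soil covering the corn seed bed, with giant foxtail and velvetleaf; initial overhead irrigation equal to 0.6 cm rainfall, then sub-irrigation. Antidote at 2.24 kg/ha; percent injury read 13 days after application, duplicate average.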

corn = assay: as above; format: in vivo
Summary of the method: as §1

[2] = Herb. No. 1 0.07 Kg/ha + Co-Herb. No. 4 1.12 Kg/ha + antidote 2.24 Kg/ha
[3] = Herb. No. 1 0.07 Kg/ha + Co-Herb. No. 6 0.14 Kg/ha + antidote 2.24 Kg/ha
[4] = Herb. No. 1 0.07 Kg/ha + Co-Herb. No. 7 0.28 Kg/ha + antidote 2.24 Kg/ha
[5] = Herb. No. 1 0.07 Kg/ha + Co-Herb. No. 12 0.28 Kg/ha + antidote 2.24 Kg/ha
[6] = Herb. No. 1 0.14 Kg/ha + Co-Herb. No. 4 1.12 Kg/ha + antidote 2.24 Kg/ha
[7] = Herb. No. 1 0.14 Kg/ha + Co-Herb. No. 6 0.14 Kg/ha + antidote 2.24 Kg/ha
[8] = Herb. No. 1 0.14 Kg/ha + Co-Herb. No. 7 0.28 Kg/ha + antidote 2.24 Kg/ha
[9] = Herb. No. 1 0.14 Kg/ha + Co-Herb. No. 12 0.28 Kg/ha + antidote 2.24 Kg/ha
[10] = Herb. No. 1 0.28 Kg/ha + Co-Herb. No. 4 1.12 Kg/ha + antidote 2.24 Kg/ha
[11] = Herb. No. 1 0.28 Kg/ha + Co-Herb. No. 6 0.14 Kg/ha + antidote 2.24 Kg/ha
[12] = Herb. No. 1 0.28 Kg/ha + Co-Herb. No. 7 0.28 Kg/ha + antidote 2.24 Kg/ha
[13] = Herb. No. 1 0.28 Kg/ha + Co-Herb. No. 12 0.28 Kg/ha + antidote 2.24 Kg/ha
[14] = Herb. No. 1 0.56 Kg/ha + Co-Herb. No. 4 1.12 Kg/ha + antidote 2.24 Kg/ha
[15] = Herb. No. 1 0.56 Kg/ha + Co-Herb. No. 6 0.14 Kg/ha + antidote 2.24 Kg/ha
[16] = Herb. No. 1 0.56 Kg/ha + Co-Herb. No. 7 0.28 Kg/ha + antidote 2.24 Kg/ha
[17] = Herb. No. 1 0.56 Kg/ha + Co-Herb. No. 12 0.28 Kg/ha + antidote 2.24 Kg/ha

Compound | % Inhibition GFT [1, 2] [%] | % Inhibition GFT [1, 3] [%] | % Inhibition GFT [1, 4] [%] | % Inhibition GFT [1, 5] [%] | % Inhibition GFT [1, 6] [%] | % Inhibition GFT [1, 7] [%] | % Inhibition GFT [1, 8] [%] | % Inhibition GFT [1, 9] [%] | % Inhibition GFT [1, 10] [%] | % Inhibition GFT [1, 11] [%] | % Inhibition GFT [1, 12] [%] | % Inhibition GFT [1, 13] [%] | % Inhibition GFT [1, 14] [%] | % Inhibition GFT [1, 15] [%] | % Inhibition GFT [1, 16] [%] | % Inhibition GFT [1, 17] [%] | % Inhibition Corn (corn; [2]) [%] | % Inhibition Corn (corn; [3]) [%] | % Inhibition Corn (corn; [4]) [%] | % Inhibition Corn (corn; [5]) [%] | further results
CC1COc2ccccc2N1C(=O)C(Cl)Cl (centres unmarked) [compound 17] | 55 | 100 | 100 | 99 | 50 | 100 | 100 | 99 | 45 | 98 | 100 | 98 | 70 | 99 | 99 | 100 | 0 | 5 | 0 | 5 | % Inhibition Corn (corn; [6]): 0%; % Inhibition Corn (corn; [7]): 0%; % Inhibition Corn (corn; [8]): 0%; % Inhibition Corn (corn; [9]): 5%; % Inhibition Corn (corn; [10]): 5%; % Inhibition Corn (corn; [11]): 15%; % Inhibition Corn (corn; [12]): 5%; % Inhibition Corn (corn; [13]): 5%; % Inhibition Corn (corn; [14]): 20%; % Inhibition Corn (corn; [15]): 15%; % Inhibition Corn (corn; [16]): 15%; % Inhibition Corn (corn; [17]): 20%
O=C(O)COC(c1ccccc1)c1ccccc1 [compound 18] | 65 | 100 | 99 | 100 | 55 | 99 | 99 | 99 | 70 | 99 | 100 | 100 | 65 | 100 | 100 | 99 | 5 | 0 | 0 | 0 | % Inhibition Corn (corn; [6]): 5%; % Inhibition Corn (corn; [7]): 0%; % Inhibition Corn (corn; [8]): 10%; % Inhibition Corn (corn; [9]): 0%; % Inhibition Corn (corn; [10]): 5%; % Inhibition Corn (corn; [11]): 5%; % Inhibition Corn (corn; [12]): 5%; % Inhibition Corn (corn; [13]): 10%; % Inhibition Corn (corn; [14]): 10%; % Inhibition Corn (corn; [15]): 20%; % Inhibition Corn (corn; [16]): 10%; % Inhibition Corn (corn; [17]): 15%
O=C(O)COC(c1ccccc1)c1ccccc1 [compound 19] | 40 | 100 | 99 | 99 | 60 | 100 | 99 | 99 | 45 | 99 | 99 | 100 | 70 | 99 | 99 | 99 | 0 | 0 | 0 | 0 | % Inhibition Corn (corn; [6]): 0%; % Inhibition Corn (corn; [7]): 0%; % Inhibition Corn (corn; [8]): 0%; % Inhibition Corn (corn; [9]): 0%; % Inhibition Corn (corn; [10]): 5%; % Inhibition Corn (corn; [11]): 5%; % Inhibition Corn (corn; [12]): 5%; % Inhibition Corn (corn; [13]): 5%; % Inhibition Corn (corn; [14]): 5%; % Inhibition Corn (corn; [15]): 10%; % Inhibition Corn (corn; [16]): 10%; % Inhibition Corn (corn; [17]): 20%
COC(=O)COC(c1ccccc1)c1ccccc1 [compound 20] | 65 | 100 | 98 | 99 | 40 | 99 | 98 | 100 | 65 | 100 | 100 | 100 | 65 | 100 | 99 | 100 | 0 | 0 | 0 | 0 | % Inhibition Corn (corn; [6]): 0%; % Inhibition Corn (corn; [7]): 5%; % Inhibition Corn (corn; [8]): 0%; % Inhibition Corn (corn; [9]): 5%; % Inhibition Corn (corn; [10]): 0%; % Inhibition Corn (corn; [11]): 5%; % Inhibition Corn (corn; [12]): 0%; % Inhibition Corn (corn; [13]): 5%; % Inhibition Corn (corn; [14]): 10%; % Inhibition Corn (corn; [15]): 20%; % Inhibition Corn (corn; [16]): 5%; % Inhibition Corn (corn; [17]): 10%
